Measured values taken from publication PMC12216609, “Inhibitors of eIF1A-ribosome interaction unveil uORF-dependent regulation of translation initiation and antitumor and antiviral effects” (The EMBO Journal, 2025).
Where “and” joins values, the source holds several entries; their conditions need not be identical. Equal values may be shown once. Read-outs that look alike come from different tables or passages of the source.

Experiments:
[1] = target: T1, eIF1A (Homo sapiens, UniProt P47813); type: binding; settings: for fluorescence ratio, eIF1A: background-corrected, relative to DMSO or lowest 1Ai concentration, replicate columns; for WT eIF1A IC50: fluorescence binding; for IC50 concentration (µM), WT eIF1A: summary table, fluorescence binding assay
T1 construct: His-bdSUMO (cleaved yes); made in house; host or cells: E. coli BL-21
T1 sequence (P47813 whole entry): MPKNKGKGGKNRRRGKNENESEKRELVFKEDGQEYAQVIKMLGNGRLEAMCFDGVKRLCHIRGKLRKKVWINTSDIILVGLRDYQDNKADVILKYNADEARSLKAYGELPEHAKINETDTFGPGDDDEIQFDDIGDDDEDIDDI

[2] = target: T2, eIF1A-RPS10 interaction (Homo sapiens, UniProt P46783+P47813); experiment: Split-Renilla luciferase eIF1A-RPS10 interaction screen, dose-response; type: biochemical
T2 construct: made in house; host or cells: E. coli BL21 (PRSFduet); unpurified lysate supernatant
T2 sequence (P47813 whole entry, one chain of several): as the sequence (P47813 whole entry) above
Procedure, shortened: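 eIF1A (C-terminus fused to N-terminal Renilla fragment, N-terminal tail left free) and RPS10 fused to the C-terminal Renilla fragment were expressed in BL21 E. coli (0.5 mM IPTG, overnight at 16 °C). Clarified lysates in TKE buffer served as the source of reconstituted luciferase activity; loss of signal indicated disrupted interaction.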

[3] = target: NSP1 (Severe acute respiratory syndrome coronavirus 2, UniProt P0DTD1)
[4] = Appendix Table S1, read-out: IC50 from the split RL screen
[5] = summary table, read-out: IC50 concentration (µM), IC50 screen

Compound | fluorescence ratio, eIF1A ([1]; 1Ai conc. 0.25 uM) | fluorescence ratio, eIF1A ([1]; 1Ai conc. 0.5 uM) | fluorescence ratio, eIF1A ([1]; 1Ai conc. 1 uM) | fluorescence ratio, eIF1A ([1]; 1Ai conc. 2 uM) | fluorescence ratio, eIF1A ([1]; 1Ai conc. 4 uM) | fluorescence ratio, eIF1A ([1]; 1Ai conc. 8 uM) | fluorescence ratio, eIF1A ([1]; 1Ai conc. 16 uM) | fluorescence ratio, eIF1A ([1]; 1Ai conc. 32 uM) | fluorescence ratio, eIF1A ([1]; 1Ai conc. 64 uM) | fluorescence ratio, eIF1A ([1]; 1Ai conc. 256 uM) | WT eIF1A IC50 [1] | IC50 concentration (µM), WT eIF1A [1] | IC50 [2, 4] | IC50 [2, 5] | GFP reporter ratio nsp1/gfp, avg [3] | GFP reporter ratio nsp1/gfp, rep 1 [3] | gfp signal, mean of duplicate wells [3] | nsp1 signal, mean of duplicate wells [3] | ratio (nsp1/gfp) [3] | also measured
CCOC(=O)c1ccsc1NC(=O)CN1C(=O)NC(C)(c2cccc3ccccc23)C1=O (stereo not shown) [1Ai-1861] | 1.039 and 0.974 | 1.136 and 0.9941 | 1.143 and 0.9966 | 1.167 and 0.9386 | 1.169 and 0.9347 | 1.065 and 0.8919 | 1.1254 and 0.8973 | 1.149 and 0.9563 | 1.304 and 0.9843 | 1.359 and 0.9897 | No binding | No binding | 14 µM | 15 µM | 0.5997 | 0.5997 | 311 | 186.5 | 0.600 | IC50 ([1]; eIF1A, from the titration data, read-out: IC50 (eIF1A titration block)): 71 µM
COc1ccc2oc(C(=O)OC(C)C(=O)Nc3sccc3C(N)=O)c(C)c2c1 (stereo not shown) [1Ai-3044] | 0.7896 and 0.9625 | 0.8401 and 0.9684 | 0.783 and 0.965 | 1.321 and 0.9132 | 1.411 and 0.9093 | 1.361 and 0.8279 | 1.171 and 0.7406 | 1.256 and 0.7959 | 1.351 and 0.8195 | 1.419 and 0.8072 | No binding | No binding | 15 µM | 10 µM | 0.4548 | 0.4548 | 2086.5 | 949 | 0.455 | –
Oc1cc(Cl)ccc1Oc1ccc(Cl)cc1Cl [1Ai-6248] | 0.9384 and 1.064 | 0.9722 and 1.055 | 1.006 and 1.027 | 0.9417 and 1.0128 | 0.9205 and 0.9547 | 0.8204 and 0.8224 | 0.7985 and 0.7888 | 0.7283 and 0.6891 | 0.6123 and 0.5776 | 0.937 and 1.038 | No binding | No binding | – | 28 µM | 0.4361 | 0.4445 | 2505 and 4211.5 | 1071.5 and 1872 | 0.428 and 0.444 | GFP reporter ratio nsp1/gfp, rep 2 [3]: 0.4277
